Measured values from PMC6021502, “Cannabigerol Action at Cannabinoid CB1 and CB2 Receptors and at CB1–CB2 Heteroreceptor Complexes” (Frontiers in Pharmacology, 2018).
Like-named read-outs stand apart in the source and are kept apart here.

Experiments:
CB1R [1] = tested on: T1, CB1R; assay: ERK1/2 phosphorylation in HEK-293T cells; format: cell-based, human
T1 construct: expressed in transfected cells; host or cells: HEK-293T, transient transfection (PEI)
Description: (§1) HEK-293T cells were grown in DMEM medium (Gibco, Paisley, Scotland, United Kingdom) supplemented with 2 mM L-glutamine, 100 U/mL penicillin/streptomycin, MEM Non-Essential Amino Acids Solution (1/100) and 5% (v/v) heat inactivated Foetal Bovine Serum (FBS) (Invitrogen, Paisley, Scotland, United Kingdom). […] Cells were transiently transfected with the PEI (Polyethylenimine, Sigma, St. Louis, MO, United States) method as previously described ([Medrano et al., 2017]; [Navarro et al., 2018b]) and used for functional assays 48 h later (unless otherwise stated).
(§2) To determine ERK1/2 phosphorylation, 50,000 HEK-293T cells/well were plated in transparent Deltalab 96-well microplates and kept at the incubator for 24 h. 2 to 4 h before the experiment, the medium was substituted by serum-starved DMEM medium. Then, cells were pre-treated at 25°C for 10 min with vehicle or CBG in serum-starved DMEM medium and stimulated for an additional 7 min with the specific agonists. Cells were then washed twice with cold PBS before addition of lysis buffer (20 min treatment). 10 μL of each supernatant were placed in white ProxiPlate 384-well microplates and ERK 1/2 phosphorylation was determined using AlphaScreen®SureFire® kit (Perkin Elmer) following the instructions of the supplier and using an EnSpire® Multimode Plate Reader (PerkinElmer, Waltham, MA, United States).

CB2R [2] = tested on: T2, CB2R; assay: ERK1/2 phosphorylation in HEK-293T cells; format: cell-based, human
T2 construct: expressed in transfected cells; host or cells: HEK-293T, transient transfection (PEI)
Description: as §1, §2

CB1R [3] = details: cited from earlier work
CB2R [4] = details: cited from earlier work
TRPV2 = tested on: TRPV2; set-up: method as in De Petrocellis et al., 2011; details: ref De Petrocellis et al., 2011; read-out: EC50, agonist of TRPV2; cited from earlier work
PPARγ = target: PPARγ; set-up: method as in Granja et al., 2012; Nadal et al., 2017; details: ref Granja et al., 2012; Nadal et al., 2017; cited from earlier work
macrophages = tested on: macrophages; set-up: method as in Borrelli et al., 2013; details: ref Borrelli et al., 2013; cited from earlier work

SMILES: CCCCCc1cc(O)c(C/C=C(\C)CCC=C(C)C)c(O)c1 [CBG, cannabigerol]
- Effect on agonist-induced MAPK phosphorylation (CB1R [1]; 100 nM or 1 μM CBG, 100 nM AEA or ACEA, CB1R): unable to modify
- Effect on MAPK phosphorylation (CB1R [1]; CBG alone, 1 nM to 10 μM, CB1R-expressing cells): no significant action
- Effect on AEA and JWH133 effects on ERK1/2 phosphorylation (CB2R [2]; 100 nM or 1 μM CBG pretreatment, 100 nM AEA or JWH133, CB2R): reduced the effects of AEA and JWH133
- Activation of the MAP kinase pathway (CB2R [2]; CBG alone, 1 nM to 10 μM, CB2R-expressing cells): notable
- Ki (CB1R [3]; membranes from mice brain, preliminary results, ref Gauson et al., 2007, Pertwee, 2008): 300 to 500 nM
- Ki (CB1R [3]; mouse brain membranes, ref Cascio et al., 2010): 381 nM
- Ki (CB2R [4]; CHO cells expressing the human CB2R, preliminary results, ref Gauson et al., 2007, Pertwee, 2008): 300 to 500 nM
- Ki (CB2R [4]; CHO cells expressing the human receptor, ref Cascio et al., 2010): 2600 nM
- EC50 (TRPV2): 1700 nM
- Ki (PPARγ): 11700 nM
- Nitrite release from macrophages after LPS stimulation (macrophages): reduce
